Read-outs that look alike come from different tables or passages of the source.
Legend:
PKC epsilon = target: T1, PKC epsilon (Homo sapiens, UniProt Q02156); test: Biochemical assay for PKC epsilon (fluorescence polarization, Protein Kinase C Assay Kit, Red); conditions: read-out: IC50 μM PKCε
T1 construct: purchased Invitrogen P2282
T1 sequence (Q02156 1-737): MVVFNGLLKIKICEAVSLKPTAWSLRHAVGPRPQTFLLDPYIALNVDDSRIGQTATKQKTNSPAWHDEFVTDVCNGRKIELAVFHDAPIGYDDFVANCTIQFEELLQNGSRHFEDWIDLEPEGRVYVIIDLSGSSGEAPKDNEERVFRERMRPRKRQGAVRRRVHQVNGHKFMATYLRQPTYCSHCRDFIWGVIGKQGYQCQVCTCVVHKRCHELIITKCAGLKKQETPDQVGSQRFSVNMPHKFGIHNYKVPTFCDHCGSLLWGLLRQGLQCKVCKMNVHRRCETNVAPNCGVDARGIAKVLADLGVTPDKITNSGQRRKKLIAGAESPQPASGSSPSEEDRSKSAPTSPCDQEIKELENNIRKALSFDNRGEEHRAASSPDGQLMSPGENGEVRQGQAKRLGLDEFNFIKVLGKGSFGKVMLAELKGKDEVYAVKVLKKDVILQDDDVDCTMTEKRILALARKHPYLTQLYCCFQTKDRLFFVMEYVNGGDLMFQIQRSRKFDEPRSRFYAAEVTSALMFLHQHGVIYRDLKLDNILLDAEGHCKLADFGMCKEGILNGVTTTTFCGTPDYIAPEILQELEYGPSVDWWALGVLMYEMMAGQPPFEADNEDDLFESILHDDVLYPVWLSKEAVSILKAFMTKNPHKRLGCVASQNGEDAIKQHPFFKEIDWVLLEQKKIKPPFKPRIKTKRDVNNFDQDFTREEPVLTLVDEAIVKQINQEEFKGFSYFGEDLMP
Protocol: The compounds were tested for inhibition of PKC epsilon.
The inhibition assays were performed with a fluorescence polarization (FP) assay using the commercially available Protein Kinase C Assay Kit, Red, from Invitrogen (Product ID. No. P2941), essentially in accordance with the protocol supplied by the manufacturer. […] The isozyme PKC epsilon was also obtained from Invitrogen (Product ID No. P2282).
Staurosporine was used as a positive control (2 μM).
To perform the assay, 2 μl of a solution of the compound to be tested in DMSO (at each concentration) was added to 6 μl of a solution of the enzyme in 10 mM HEPES, 5 mM dithiotreitol, 0.1% Triton X-100, pH 7.4. The final concentration of the enzymes was 10 ng/ml.
After incubating for 30 minutes at room temperature, 4 μl of a mixture of ATP and the protein substrate in 60 mM HEPES (pH7.4), 15 mM MgCl2, 0.3 mM CaCl2, 0.06% NP40 was added.
After incubating for 80 minutes at room temperature, 3 μl of a mix solution of 500 mM EDTA (stop solution) and the Rhodamine-based PKC Red Tracer (from the Protein Kinase C Assay Kit) in BGG/phosphate buffer (pH7.4) with 0.02% NaN3 and 0.1% Triton X-100 was added and 5 μl of a the Anti-Phosphoserine antibody (also from the Protein Kinase C Assay Kit) in BGG/phosphate buffer (pH7.4) with 0.02% NaN3.
The results were fitted to a curve using the XL-Fit algorithm and […] were calculated for each fitted curve, again using the XL-Fit algorithm.

human ROCKα/ROCKII mix = target: T2, human ROCKα/ROCKII mix (Homo sapiens, UniProt O75116); test: Biochemical assay for ROCK (fluorescence polarization, ROCK IMAP Kit)
T2 construct: purchased Upstate Biotechnology 14-451
Protocol: The compounds were tested for inhibition of human ROCKα/ROCKII mix.
The inhibition assays were performed with a fluorescence polarization (FP) assay using the commercially available ROCK IMAP Kit from Molecular Devices (Product ID. No. R8093), essentially in accordance with the protocol supplied by the manufacturer. […] The enzyme mix ROCKα/ROCKII was obtained from Upstate Biotechnology (Product ID No 14-451).
In summary, the compound was screened in the wells of a 384 well plate for enzymatic inhibition with concentrations varying from 100 μM to 0.3 nM using a stepwise 3 (or 2)-fold dilution.
To perform the assay, 1 μl of a solution of the compound to be tested in DMSO (at each concentration) was added to 2 μl of a solution of the enzyme in 10 mM Tris-HCl , 10 mM MgCl2, 0.1% BSA, 0.05% NaN3, pH 7.2. The final concentration of the enzyme was 2.6 nM.
After incubating for 30 minutes at room temperature, 2 μl of a mixture of ATP and the protein substrate in 10 mM Tris-HCl, 10 mM MgCl2, 0.1% BSA, 0.05% NaN3, pH 7.2 was added. The final concentration of the ATP was 10 μM and final concentration of protein substrate was 0.2 μM.
After incubating for 60 minutes at room temperature, 12 μl of the IMAP Binding Solution (mix of the IMAP Binding Buffer A (1×) and the IMAP Binding Reagent (from the ROCK IMAP kit)) was added.
The mixture thus obtained (total volume: 17 μl) was incubated for 60 minutes at room temperature, upon which the fluorescence polarization was measured using an automated plate reader (Perkin Elmer, Model Envision 2100-0010 HTS) with FP filters: excitation filter FITC FP 480 and emission filters FITC FP P-pol 535 and FITC FP S-pol 535 (Perkin-Elmer). The results were fitted to a curve using the XL-Fit algorithm and IC50 values were calculated for each fitted curve, again using the XL-Fit algorithm.

[1] = compounds of Formula XIV, Table 3
[2] = Table 2, compounds of Formula XIII

T2 sequence (O75116 11-552 limits assumed): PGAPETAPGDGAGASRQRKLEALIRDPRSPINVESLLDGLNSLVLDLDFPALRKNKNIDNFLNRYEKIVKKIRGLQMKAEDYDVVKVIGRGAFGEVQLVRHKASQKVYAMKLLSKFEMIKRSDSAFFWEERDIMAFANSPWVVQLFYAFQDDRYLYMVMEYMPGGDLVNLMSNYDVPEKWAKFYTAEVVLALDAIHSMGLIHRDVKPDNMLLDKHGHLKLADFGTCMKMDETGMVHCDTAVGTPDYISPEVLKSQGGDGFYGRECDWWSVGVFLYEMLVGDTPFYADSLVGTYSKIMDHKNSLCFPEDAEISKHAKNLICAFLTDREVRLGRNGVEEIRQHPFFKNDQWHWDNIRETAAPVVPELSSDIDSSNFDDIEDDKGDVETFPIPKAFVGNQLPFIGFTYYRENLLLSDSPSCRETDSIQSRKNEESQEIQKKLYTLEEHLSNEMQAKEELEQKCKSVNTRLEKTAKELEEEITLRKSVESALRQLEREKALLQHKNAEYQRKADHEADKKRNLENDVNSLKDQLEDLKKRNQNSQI

| Molecule | IC50 (human ROCKα/ROCKII mix) | other results |
| --- | --- | --- |
| 4-(1-Amino-2- phenethylcarbamoyl-ethyl)- N-pyridin-4-yl-benzamide [Compound 281] | – | IC50 (PKC epsilon; [1]): 0.5 to 5 µM; IC50 (human ROCKα/ROCKII mix; [1]): 0.05 to 0.5 µM |
| 4-(1-Amino-2-nonanoylamino-ethyl)- N-pyridin-4-yl-benzamide [Compound 38] | – | IC50 (PKC epsilon; [2]): 0.5 to 5 µM; IC50 (human ROCKα/ROCKII mix; [2]): 0.05 to 0.5 µM |
| 4-(1-Amino-2-{[1-(4-chloro- phenyl)- cyclobutanecarbonyl]- methyl- amino}-ethyl)- N-pyridin-4-yl-benzamide [Compound 464] | 0.5 to 5 µM | – |
| 4-(1-Amino-2-{[1-(4-chloro- phenyl)- cyclopentanecarbonyl]- methyl- amino}-ethyl)- N-pyridin-4-yl-benzamide [Compound 465] | 0.5 to 5 µM | – |
| 4-(1-Amino-2-{[1-(4-chloro- phenyl)- cyclopropanecarbonyl]- methyl- amino}-ethyl)- N-pyridin-4-yl-benzamide [Compound 463] | 0.5 to 5 µM | – |
| 4-(1-Amino-2-{[1-(4-fluoro- phenyl)- cyclopropanecarbonyl]- methyl- amino}-ethyl)- N-pyridin-4-yl-benzamide [Compound 473] | 0.5 to 5 µM | – |
| 4-(1-Amino-2-{[2-(2,3,4- trimethoxy-phenyl)-acetyl]- methyl-amino}-ethyl)-N- pyridin-4-yl-benzamide [Compound 431] | 5 to 50 µM | – |
| 4-(1-Amino-2-{[2-(2-fluoro- phenyl)-acetyl]-methyl- amino}-ethyl)- N-pyridin-4-yl-benzamide [Compound 466] | 0.5 to 5 µM | IC50 (PKC epsilon): 5 to 50 µM |
| 4-(1-Amino-2-{[2-(3-bromo- phenyl)-acetyl]-methyl- amino}-ethyl)- N-pyridin-4-yl-benzamide [Compound 456] | 0.5 to 5 µM | IC50 (PKC epsilon): 5 to 50 µM |
| 4-(1-Amino-2-{[2-(3-chloro- phenyl)-acetyl]-methyl- amino}-ethyl)- N-pyridin-4-yl-benzamide [Compound 459] | 0.5 to 5 µM | IC50 (PKC epsilon): 5 to 50 µM |
| 4-(1-Amino-2-{[2-(3-fluoro-4- methoxy-phenyl)-acetyl]- methyl- amino}-ethyl)- N-pyridin-4-yl-benzamide [Compound 470] | 0.5 to 5 µM | IC50 (PKC epsilon): 5 to 50 µM |
| 4-(1-Amino-2-{[2-(3-fluoro- phenyl)-acetyl]-methyl- amino}-ethyl)- N-pyridin-4-yl-benzamide [Compound 468] | 0.5 to 5 µM | IC50 (PKC epsilon): 5 to 50 µM |
| 4-(1-Amino-2-{[2-(4- hydroxy-3-nitro-phenyl)- acetyl]-methyl- amino]-ethyl)- N-pyridin-4-yl-benzamide [Compound 439] | 0.05 to 0.5 µM | IC50 (PKC epsilon): 5 to 50 µM |
| 4-(1-Amino-2-{[2-(4- trifluoromethyl-phenyl)- acetyl]-methyl- amino}-ethyl)- N-pyridin-4-yl-benzamide [Compound 458] | 0.5 to 5 µM | IC50 (PKC epsilon): 5 to 50 µM |
| 4-[1-Amino-2-(methyl- phenethyl-carbamoyl)-ethyl]- N-pyridin-4-yl-benzamide [Compound 282] | – | IC50 (human ROCKα/ROCKII mix; [1]): 0.05 to 0.5 µM |
| 4-{Amino-[1-(2-methyl-2-thiophen-2-yl-propionyl)-pyrrolidin-2-yl]-methyl}-N-pyridin-4-yl-benzamide [Compound 548] | 0.5 to 5 µM | – |
| NC(CNC(=O)c1ccc2ccccc2n1)c1ccc(C(=O)Nc2ccncc2)cc1 (centres unmarked) [Compound 112, Quinoline-2-carboxylic acid {2-amino-2-[4-(pyridin-4-ylcarbamoyl)-phenyl]-ethyl}-amide] | – | IC50 (human ROCKα/ROCKII mix; [2]): 0.05 to 0.5 µM |
| CN(Cc1ccccc1)C(=O)CC(N)c1ccc(C(=O)Nc2ccncc2)cc1 (centres unmarked) [Compound 214, 4-[1-Amino-2-(benzyl-methyl-carbamoyl)-ethyl]-N-pyridin-4-yl-benzamide] | – | IC50 (human ROCKα/ROCKII mix; [1]): 0.05 to 0.5 µM |
| Cc1ccc(NC(=O)CC(N)c2ccc(C(=O)Nc3ccncc3)cc2)cc1 (centres unmarked) [Compound 317, 4-(1-Amino-2-p-tolylcarbamoyl-ethyl)-N-pyridin-4-yl-benzamide] | – | IC50 (human ROCKα/ROCKII mix; [1]): 0.05 to 0.5 µM |

The next lines start with results.

| IC50 (human ROCKα/ROCKII mix) | Molecule | other results |
| --- | --- | --- |
| 0.5 to 5 µM | 4-(1-Amino-2-{[2-(4-chloro- phenyl)-2-methyl-propionyl]- methyl- amino}-ethyl)- N-pyridin-4-yl-benzamide [Compound 462] | – |
| 0.5 to 5 µM | 4-(1-Amino-2-{[2-(4-fluoro- phenyl)-2-methyl-propionyl]- methyl- amino}-ethyl)- N-pyridin-4-yl-benzamide [Compound 472] | – |
| 0.5 to 5 µM | 4-(Amino-{1-[2-(4-fluoro-phenyl)-2-methyl-propionyl]-pyrrolidin-2-yl}-methyl)-N-pyridin-4-yl-benzamide [Compound 586] | – |
| 0.05 to 0.5 µM | Cc1ccccc1CNC(=O)NCC(N)c1ccc(C(=O)Nc2ccncc2)cc1 (centres unmarked) [Compound 9, 4-{1-amino-2-[3-(2-methyl-benzyl)-ureido]-ethyl}-N-pyridin-4-yl-benzamide] | – |
| 0.05 to 0.5 µM | COc1ccc(CNC(=O)NCC(N)c2ccc(C(=O)Nc3ccncc3)cc2)cc1 (centres unmarked) [Compound 10, 4-{1-amino-2-[3-(4-methoxy-benzyl)-ureido]-ethyl}-N-pyridin-4-yl-benzamide] | – |
| 0.05 to 0.5 µM | NC(CNC(=O)Nc1ccc(F)cc1)c1ccc(C(=O)Nc2ccncc2)cc1 (centres unmarked) [Compound 19, 4-{1-amino-2-[3-(4-fluoro-phenyl)-ureido]-ethyl}-N-pyridin-4-yl-benzamide] | – |
| 0.05 to 0.5 µM | COc1ccc(Cl)cc1NC(=O)NCC(N)c1ccc(C(=O)Nc2ccncc2)cc1 (centres unmarked) [Compound 27, 4-{1-amino-2-[3-(5-chloro-2-methoxy-phenyl)-ureido]-ethyl}-N-pyridin-4-yl-benzamide] | – |
| 0.5 to 5 µM | CN(CC(N)c1ccc(C(=O)Nc2ccncc2)cc1)C(=O)Cc1ccc(F)c(F)c1 (centres unmarked) [Compound 484, 4-(1-Amino-2-{[2-(3,4-difluoro-phenyl)-acetyl]-methyl-amino}-ethyl)-N-pyridin-4-yl-benzamide] | – |
| 0.5 to 5 µM | CN(CC(N)c1ccc(C(=O)Nc2ccncc2)cc1)C(=O)C1CC(=O)c2ccccc21 (centres unmarked) [Compound 508, 3-Oxo-indan-1-carboxylic acid {2-amino-2-[4-(pyridin-4-ylcarbamoyl)-phenyl]-ethyl}-methyl-amide] | – |
| 0.5 to 5 µM | CC(C)(C(=O)N1CCCC1C(N)c1ccc(C(=O)Nc2ccncc2)cc1)c1ccsc1 (centres unmarked) [Compound 550, 4-{Amino-[1-(2-methyl-2-thiophen-3-yl-propionyl)-pyrrolidin-2-yl]-methyl}-N-pyridin-4-yl-benzamide] | – |
